Test results from US12110289B2, “Heterocyclic compounds, preparation methods and uses thereof” (InventisBio Co., Ltd., priority 2020, dated 2024).
Like-named read-outs stand apart in the source and are kept apart here.

What was measured:
pooled human hepatocytes = experiment: Human hepatocyte clearance study; type: in vitro ADME
Method: (§1) The in vitro human hepatocyte clearance of compounds described here was studied using pooled human hepatocytes purchased from BioreclamationIVT (Westbury, NY, Cat #X008001, Lot #TQJ). The assay was conducted according to manufacturer's instruction. Briefly, 10 mM stock solutions of test compounds and positive control (Verapamil) were prepared in 100% DMSO. Thawing media (50 mL) used in the study consists of 31 mL Williams E medium (GIBCO Cat #12551-032), 15 mL isotonic percoll (GE Healthcare Cat #17-0891-09), 500 uL 100× GlutaMax (GIBCO Cat #35050), 750 uL HEPES (GIBCO Cat #15630-080), 2.5 mL FBS (Corning Cat #35-076-CVR), 50 uL human insulin (GIBCO Cat #12585-014) and 5 uL dexamethasone (NICPBP). Incubation media is made of Williams E medium supplemented with 1× GlutaMax. Both thawing medium and incubation medium (serum-free) were placed in a 37° C. water bath for at least 15 minutes prior to use. Compound stock solutions were diluted to 100 μM by combining 198 μL of 50% acetonitrile/50% water and 2 μL of 10 mM stock solution. Verapamil was use as positive control in the assay. Vials of cryopreserved hepatocytes were removed from storage and thawed in a 37° C. water bath with gentle shaking. Contents of the vial were poured into the 50 mL thawing medium conical tube. Vials were centrifuged at 100 g for 10 minutes at room temperature. […] […] […] The boiled hepatocytes were used to prepare negative samples. Aliquots of 198 μL hepatocytes were dispensed into each well of a 96-well non-coated plate. The plate was placed in the incubator on an orbital shaker at 500 rpm for approximately 10 minutes. Aliquots of 2 μL of the 100 μM test compound or positive control were added into respective wells of the non-coated 96-well plate to start the reaction. This assay was performed in duplicate. The plate was incubated in the incubator on an orbital shaker at 500 rpm for the designated time points. Twenty-five microliter of contents were transferred and mixed with 6 volumes (150 μL) of cold acetonitrile with IS (200 nM imipramine, 200 nM labetalol and 200 nM diclofenac) to terminate the reaction at time points of 0, 15, 30, 60, 90 and 120 minutes. Samples were centrifuged at 3,220 g for 25 minutes and aliquots of 150 μL of the supernatants were used for LC-MS/MS analysis. For data analysis, all calculations were carried out using Microsoft Excel. Peak areas were determined from extracted ion chromatograms. The in vitro half-life (t1/2) of parent compound was determined by regression analysis of the percent parent disappearance vs. time curve. […] Scaling factors for in vivo intrinsic clearance prediction using human hepatocytes are listed as: liver weight (g liver/kg body weight): 25.7; hepatocyte concentration (10^6 cells/g liver): 99; scaling factor: 2544.3.

[1] = Human hepatocyte clearance study; type: in vitro ADME; conditions: human, pooled cryopreserved human hepatocytes (suspension); for hepatocyte CLint at 1 µM: read-out: Human In vitro Clint (μl/min/10^6 cells); for half-life at 1 µM: read-out: Human In vitro T1/2; for CLint scaled at 1 µM: read-out: Human Scale-up Clint
Method: as §1

[2] = system: Lung cancer cell line NCI-H358 containing KRas G12C mutation; experiment: Assay for cell proliferation (Cell-titer Glo, 5 days); type: cell-based, human; conditions: NCI-H358, 5 days, Cell-titer Glo, read-out: IC50 (nM), Inhibition of NCI-H358 Cell Proliferation
In short: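 NCI-H358 (KRas G12C) cells, 2000 per well, attached overnight at 37 °C, 5% CO2, then treated with compound for 5 days at 0.5% DMSO final. Proliferation measured by CellTiter-Glo luminescence after 10 min at RT.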

[3] = working cell density 0.5 × 10^6 viable cells/mL
[4] = working cell density 0.5 × 10^6 viable cells/mL, scaling factor 2544.3
[5] = working cell density 2 × 10^6 viable cells/mL

Structure (SMILES)	Human Hepatocyte Remaining Percentage @ 120 min (%) (pooled human hepatocytes; [3])	hepatocyte CLint at 1 µM [1, 3]	half-life at 1 µM [1, 3]	CLint scaled at 1 µM [1, 4]	IC50 ([2]; Homo sapiens, NCI-H358, 120 h)	other results
C=CC(=O)N1CCN(c2nc(=O)n(-c3c(C4CC4)ncnc3C3CC3)c3nc(-c4ccccc4F)c(Cl)cc23)[C@@H](C)C1 [Compound 1]	27.9%	20.8 µL/min/1e6 cells	1.11 h	53 mL/min/kg	10 nM	–
C=CC(=O)N1CCN(c2nc(=O)n(-c3c(C(C)C)nc(N)nc3C(C)C)c3nc(-c4ccccc4F)c(Cl)cc23)[C@@H](C)C1 [Compound 6]	33.4%	19.3 µL/min/1e6 cells	1.2 h	49.2 mL/min/kg	4.9 nM	–
C=CC(=O)N1CCN(c2nc(=O)n(-c3c(C(C)C)nc(OC)nc3C(C)C)c3nc(-c4ccccc4F)c(Cl)cc23)[C@@H](C)C1 [Compound 8]	2.1%	63.8 µL/min/1e6 cells	0.362 h	162 mL/min/kg	11.2 nM	–
C=CC(=O)N1CCN(c2nc(=O)n(-c3c(C(C)C)nc(C)nc3C(C)C)c3nc(-c4ccccc4F)c(Cl)cc23)[C@@H](C)C1 [Compound 9]	18.6%	27.6 µL/min/1e6 cells	0.837 h	70.2 mL/min/kg	4.1 nM	–
C=CC(=O)N1CCN(c2nc(=O)n(-c3c(C(C)C)nc(OCCN(C)C)nc3C(C)C)c3nc(-c4ccccc4F)c(Cl)cc23)[C@@H](C)C1 [Compound 13]	103%	–	–	–	6.5 nM	Human In vitro T1/2 (min) (pooled human hepatocytes; [3]): ∞^b
C=CC(=O)N1CCN(c2nc(=O)n(-c3c(C(C)C)nc(N4CCNCC4)nc3C(C)C)c3nc(-c4ccccc4F)c(Cl)cc23)[C@@H](C)C1 [Compound 14]	75.7%	4.5 µL/min/1e6 cells	5.1 h	11.5 mL/min/kg	8.8 nM	–
C=CC(=O)N1CCN(c2nc(=O)n(-c3c(C4CC4)nc(OCCN(C)C)nc3C3CC3)c3nc(-c4ccccc4F)c(Cl)cc23)[C@@H](C)C1 [Compound 20]	74.3%	5.1 µL/min/1e6 cells	4.57 h	12.9 mL/min/kg	6.7 nM	–
C=CC(=O)N1CCN(c2nc(=O)n(-c3c(C4CC4)nc(OCCN(C)C)nc3C3CC3)c3nc(-c4ccccc4F)c(F)cc23)[C@@H](C)C1 [Compound 21]	90.6%	1.8 µL/min/1e6 cells	13.1 h	4.5 mL/min/kg	29.9 nM	–
C=CC(=O)N1CCN(c2nc(=O)n(-c3c(C(C)C)nc(OCCN(C)C)nc3C(C)C)c3nc(-c4c(O)cccc4F)c(Cl)cc23)[C@@H](C)C1 [Compound 22]	83.3%	2.9 µL/min/1e6 cells	7.87 h	7.5 mL/min/kg	7.6 nM	–
C=CC(=O)N1CCN(c2nc(=O)n(-c3c(C(C)C)nc(OCCN(C)C)nc3C(C)C)c3nc(-c4c(N)cccc4F)c(Cl)cc23)[C@@H](C)C1 [Compound 23]	82.4%	2.5 µL/min/1e6 cells	9.23 h	6.4 mL/min/kg	6.9 nM	–
C=CC(=O)N1C[C@H](C)N(c2nc(=O)n(-c3c(C(C)C)nc(OCCN(C)C)nc3C(C)C)c3nc(-c4ccccc4F)c(Cl)cc23)C[C@H]1C [Compound 24]	70.1%	5.9 µL/min/1e6 cells	3.9 h	15.1 mL/min/kg	9.1 nM	–
C=CC(=O)N1CCN(c2nc(=O)n(-c3c(C4CC4)nc(C)nc3C3CC3)c3nc(-c4c(O)cccc4F)c(F)cc23)[C@@H](C)C1 [Compound 28]	61.1%	8.4 µL/min/1e6 cells	2.73 h	21.5 mL/min/kg	23.3 nM	–
C=CC(=O)N1CCN(c2nc(=O)n(-c3c(C4CC4)nc(C)nc3C3CC3)c3nc(-c4c(N)cccc4F)c(F)cc23)[C@@H](C)C1 [Compound 29]	60.8%	8.5 µL/min/1e6 cells	2.72 h	21.7 mL/min/kg	11.4 nM	–
C=CC(=O)N1CCN(c2nc(=O)n(-c3c(C4CC4)ncnc3C3CC3)c3nc(-c4c(O)cccc4F)c(F)cc23)[C@@H](C)C1 [Compound 40]	–	–	–	–	7.5 nM	Human Hepatocyte Remaining Percentage @ 120 min (%) (pooled human hepatocytes; [5]): 20.7%; hepatocyte CLint at 1 µM [1, 5]: 12.7 µL/min/1e6 cells; half-life at 1 µM [1, 5]: 0.91 h; CLint scaled at 1 µM [1, 5]: 32.3 mL/min/kg
C=CC(=O)N1CCN(c2nc(=O)n(-c3c(C4CC4)ncnc3C3CC3)c3nc(-c4c(N)cccc4F)c(F)cc23)[C@@H](C)C1 [Compound 41]	–	–	–	–	6.9 nM	Human Hepatocyte Remaining Percentage @ 120 min (%) (pooled human hepatocytes; [5]): 38.9%; hepatocyte CLint at 1 µM [1, 5]: 8.2 µL/min/1e6 cells; half-life at 1 µM [1, 5]: 1.41 h; CLint scaled at 1 µM [1, 5]: 20.9 mL/min/kg
C=CC(=O)N1C[C@H](C)N(c2nc(=O)n(-c3c(C4CC4)nc(C)nc3C3CC3)c3nc(-c4c(O)cccc4F)c(F)cc23)C[C@H]1C [Compound 52]	65.3%	7.3 µL/min/1e6 cells	3.17 h	18.5 mL/min/kg	22.8 nM	–
C=CC(=O)N1CCN(c2nc(=O)n(-c3ccc4c(ncn4C)c3C(C)C)c3nc(-c4ccccc4F)c(Cl)cc23)[C@@H](C)C1 [Compound 72]	41.2%	13.3 µL/min/1e6 cells	1.73 h	34 mL/min/kg	13.1 nM	–
C=CC(=O)N1C[C@H](C)N(c2nc(=O)n(-c3c(C(C)C)nc(C(=O)O)nc3C(C)C)c3nc(-c4c(O)cccc4F)c(F)cc23)C[C@H]1C [Compound 122]	–	–	–	–	> 3000 nM	–
C=CC(=O)N1C[C@H](C)N(c2nc(=O)n(-c3c(C(C)C)nc(C(=O)O)nc3C(C)C)c3nc(-c4c(N)cccc4F)c(F)cc23)C[C@H]1C [Compound 123]	–	–	–	–	> 3000 nM	–
C=C(F)C(=O)N1CCN(c2nc(=O)n(-c3c(C4CC4)ncnc3C3CC3)c3nc(-c4c(N)cccc4F)c(Cl)cc23)[C@@H](C)C1 [Compound 131]	–	–	–	–	210 nM	–
C=C(F)C(=O)N1C[C@H](C)N(c2nc(=O)n(-c3c(C4CC4)ncnc3C3CC3)c3nc(-c4c(N)cccc4F)c(Cl)cc23)C[C@H]1C [Compound 132]	–	–	–	–	157 nM	–
COC/C=C/C(=O)N1C[C@H](C)N(c2nc(=O)n(-c3c(C4CC4)ncnc3C3CC3)c3nc(-c4c(N)cccc4F)c(Cl)cc23)C[C@H]1C [Compound 140]	–	–	–	–	58.7 nM	–
C=CC(=O)N1CCN(c2nc(=O)n(-c3c(C)cc4c(ncn4C)c3C(C)C)c3nc(-c4c(N)cccc4F)c(Cl)cc23)[C@@H](C)C1 [Compound 152]	–	–	–	–	–	IC50 [2]: 0.4 nM
C=CC(=O)N1CCN(c2nc(=O)n(-c3c(C)nc4c(ncn4C)c3C(C)C)c3nc(-c4c(N)cccc4F)c(F)cc23)[C@@H](C)C1 [Compound 157]	–	–	–	–	–	IC50 [2]: 152 nM
C=CC(=O)N1C[C@H](C)N(c2nc(=O)n(-c3c(F)cc4c(ncn4C)c3C(C)C)c3nc(-c4c(O)cccc4F)c(Cl)cc23)C[C@H]1C [Compound 166]	–	–	–	–	1.5 nM	–
C=CC(=O)N1C[C@H](C)N(c2nc(=O)n(-c3c(C(C)C)nc4c(ncn4C)c3C)c3nc(-c4ccccc4F)c(Cl)cc23)C[C@H]1C [Compound 181]	–	–	–	–	–	IC50 [2]: 44.4 nM
